# According to PMC6751184, “Heme and hemoglobin utilization by Mycobacterium tuberculosis” (Nature Communications, 2019):
# Molecular target: DppA (Rv3666c), substrate-binding protein of the Dpp transporter (Mycobacterium tuberculosis, UniProt I6X811, W442A)
smiles,measurement,value
C=CC1=C(C)C2=Cc3c(C=C)c(C)c4[n]3[Fe]([Cl])[n]3c(c(C)c(CCC(=O)O)c3=CC3=NC(=C4)C(C)=C3CCC(=O)O)=CC1=N2 [hemin],"SPR; binds but dissociates quickly, reduced affinity",Surface plasmon resonance showed that heme bound to the DppAW442A protein but dissociated quickly
